Source: PubChem BioAssay (NCI)
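Cells were grown in 96-well plates and exposed to each compound for 48 hours at five concentrations; endpoints were interpolated linearly between bracketing concentrations, or set to the highest concentration if not reached. GI50 = concentration required for 50% inhibition of growth. TGI: total growth inhibition.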

Experiments:
Assay in all cases: DTP human tumour cell line panel, 48 h
SK-MEL-28 melanoma = system: SK-MEL-28 melanoma
HT29 colon = system: HT29 colon
HOP-92 NSCLC = system: HOP-92 NSCLC
TK-10 renal = system: TK-10 renal
RPMI-8226 leukemia = system: RPMI-8226 leukemia
COLO 205 colon = system: COLO 205 colon
UACC-62 melanoma = system: UACC-62 melanoma
U251 CNS = system: U251 CNS
SW-620 colon = system: SW-620 colon
EKVX NSCLC = system: EKVX NSCLC
SK-MEL-2 melanoma = system: SK-MEL-2 melanoma
CAKI-1 renal = system: CAKI-1 renal
OVCAR-5 ovarian = system: OVCAR-5 ovarian
HOP-62 NSCLC = system: HOP-62 NSCLC

Row | Structure (SMILES) | TGI (SK-MEL-28 melanoma) | TGI (HT29 colon) | TGI (HOP-92 NSCLC) | TGI (TK-10 renal) | TGI (RPMI-8226 leukemia) | TGI (COLO 205 colon) | TGI (UACC-62 melanoma) | TGI (U251 CNS) | TGI (SW-620 colon) | TGI (EKVX NSCLC) | TGI (SK-MEL-2 melanoma) | TGI (CAKI-1 renal) | TGI (OVCAR-5 ovarian) | TGI (HOP-62 NSCLC) | GI50 (SK-MEL-28 melanoma) | GI50 (HT29 colon) | GI50 (UACC-62 melanoma) | GI50 (EKVX NSCLC) | GI50 (OVCAR-5 ovarian) | GI50 (HOP-62 NSCLC)
1 | COc1cc2c3c([nH]c2c(OC)c1OC)CCN(Cc1ccccc1)C3 | 50.5 µM | 49.9 µM | 41.5 µM | 78.9 µM | 52.5 µM | 32 µM | > 100 µM | 87.4 µM | > 100 µM | > 100 µM | 47.1 µM | > 100 µM | > 100 µM | > 100 µM | – | – | – | – | – | –
2 | COC(=O)C(=O)Cc1nc2ccccc2o1 | > 100 µM | > 100 µM | – | > 100 µM | – | – | > 100 µM | > 100 µM | – | > 100 µM | > 100 µM | – | > 100 µM | > 100 µM | – | – | – | – | – | –
3 | COc1cc(CNc2nc3ccccc3nc2C(=O)O)cc(OC)c1OC | > 100 µM | > 100 µM | > 100 µM | > 100 µM | > 100 µM | > 100 µM | > 100 µM | > 100 µM | > 100 µM | > 100 µM | – | > 100 µM | > 100 µM | > 100 µM | – | – | – | – | – | –
4 | CN(C)CCc1c2c(nc3ccccc13)C(=O)c1cccnc1C2=O | 1.76 µM | 8.35 µM | 8.76 µM | 2.94 µM | 1.82 µM | 4.91 µM | 0.738 µM | 4.3 µM | 1.91 µM | 5.73 µM | 4.21 µM | 4.62 µM | 3.44 µM | – | – | – | – | – | – | –
5 | CCN(CCN(CC)C(=O)Nc1ccccc1)C(=O)Nc1ccccc1 | > 100 µM | > 100 µM | > 100 µM | > 100 µM | > 100 µM | > 100 µM | > 100 µM | > 100 µM | > 100 µM | > 100 µM | > 100 µM | – | > 100 µM | > 100 µM | – | – | – | – | – | –
6 | O=C1CCCC/C1=C\c1ccc(Cl)c(Cl)c1 | 37.7 µM | 55.1 µM | – | 34.4 µM | – | 96.6 µM | 63.6 µM | 30.6 µM | 50.7 µM | > 100 µM | – | 37.6 µM | – | > 100 µM | – | – | – | – | – | –
7 | O=C1c2ccccc2N2OC3(N4CCCC4)CCCCC3C12c1ccccc1 (stereo unspecified) | 76.2 µM | 52.6 µM | 29.7 µM | – | > 100 µM | 31 µM | 40.1 µM | > 100 µM | 31.5 µM | > 100 µM | – | – | – | > 100 µM | – | – | – | – | – | –
8 | CC1CC(C#N)=C2NCCN2C1=O (stereo unspecified) | > 100 µM | > 100 µM | – | > 100 µM | > 100 µM | 37.4 µM | – | > 100 µM | > 100 µM | > 100 µM | > 100 µM | > 100 µM | – | > 100 µM | – | – | – | – | – | –
9 | O=C1N[C@@H]2C(=C[C@H](O)[C@@H](O)[C@H]2O)c2cc3c(c(O)c21)OCO3 | 0.0944 µM | 0.172 µM | 0.272 µM | – | 0.0858 µM | – | 0.0587 µM | 0.394 µM | 2.67 µM | 0.0743 µM | 0.0499 µM | 0.0735 µM | 0.294 µM | 0.0538 µM | – | – | – | – | – | –
10 | CN1CCN(P2(=S)Oc3ccc4ccccc4c3-c3c(ccc4ccccc34)O2)CC1 | > 100 µM | 49.8 µM | 59.7 µM | – | 43.1 µM | 28.8 µM | > 100 µM | > 100 µM | > 100 µM | > 77.8 µM | 42.4 µM | > 67.5 µM | > 100 µM | > 78.9 µM | – | – | – | – | – | –
11 | COc1cc(O)c2c(=O)c(OC)c(-c3ccc(OC)c(OC)c3)oc2c1 | 51.6 µM | > 100 µM | – | > 100 µM | > 100 µM | > 100 µM | > 100 µM | > 100 µM | > 100 µM | > 100 µM | – | 57.1 µM | > 100 µM | > 100 µM | 18 µM | > 100 µM | > 100 µM | > 100 µM | 23 µM | 58.5 µM
12 | COc1cc(Nc2nc3cc(C(F)(F)F)ccc3n3cccc23)cc(OC)c1OC | > 100 µM | – | > 100 µM | > 100 µM | > 100 µM | > 100 µM | > 100 µM | > 100 µM | > 100 µM | > 100 µM | > 100 µM | > 100 µM | > 100 µM | > 100 µM | – | – | – | – | – | –
13 | CCOC(=O)c1c[nH]c2ccc3c(c2c1=O)S(=O)(=O)CC3 (tested in a mixture with another compound) | > 100 µM | > 100 µM | > 100 µM | – | > 100 µM | > 100 µM | > 100 µM | > 100 µM | > 100 µM | > 100 µM | > 100 µM | > 100 µM | > 100 µM | > 100 µM | – | – | – | – | – | –
14 | CC1(C)CC(=O)c2c(nc3c4c([nH]c(-c5ccc(Br)cc5)c24)CC(C)(C)C3)C1 | > 100 µM | > 100 µM | > 100 µM | > 100 µM | – | 54.2 µM | > 100 µM | > 100 µM | > 100 µM | > 100 µM | > 100 µM | > 100 µM | > 100 µM | > 100 µM | – | – | – | – | – | –
15 | O=C(c1ccco1)N(C(=O)N1CCN(c2ccccc2)CC1)S(=O)(=O)c1ccccc1 | > 100 µM | > 100 µM | 73.6 µM | > 100 µM | – | 82.4 µM | 82 µM | 72.2 µM | > 100 µM | 60.2 µM | 37.2 µM | 57.8 µM | > 100 µM | > 100 µM | – | – | – | – | – | –
16 | C1CSCCSCCCSCCSCCCSCCSCCCSCCSC1 | > 100 µM | > 100 µM | > 100 µM | > 100 µM | > 100 µM | > 100 µM | – | > 100 µM | > 100 µM | > 100 µM | > 100 µM | > 100 µM | > 100 µM | > 100 µM | – | – | – | – | – | –
17 | COc1ccc(C(=O)/C=C/c2ccc(OCC#N)cc2)cc1 | 32.9 µM | > 100 µM | 67.4 µM | > 100 µM | – | 40.5 µM | > 10 µM | 32.5 µM | 33.6 µM | > 100 µM | – | 42 µM | > 100 µM | > 100 µM | – | – | – | – | – | –
18 | O=C1Cc2c([nH]c3ccc(C(=O)O)cc23)-c2ccccc2N1 | > 100 µM | > 100 µM | > 100 µM | > 100 µM | > 100 µM | > 100 µM | > 100 µM | > 100 µM | > 100 µM | – | > 100 µM | > 100 µM | > 100 µM | > 100 µM | – | – | – | – | – | –
